Results published in patent publication US20190031667A1, “PESTICIDALLY ACTIVE HETEROCYCLIC DERIVATIVES WITH SULPHUR CONTAINING SUBSTITUENTS” (SYNGENTA PARTICIPATIONS AG, priority 2016, published 2019).

Tests used:
[1] = system: Plutella xylostella (Diamond Back Moth); assay: Example B3: Activity against Plutella xylostella, artificial diet; type: in vivo; settings: 120 h, application rate 200 ppm, L2 larvae, 5 days after infestation, read-out: effect in at least one of the two categories (mortality or growth inhibition)
Experimental: Example B3: Activity Against Plutella xylostella (Diamond Back Moth)
(§1) 24-well microtiter plates with artificial diet were treated with aqueous test solutions prepared from 10′000 ppm DMSO stock solutions by pipetting. After drying, the plates were infested with L2 larvae (10 to 15 per well). The samples were assessed for mortality and growth inhibition in comparison to untreated samples 5 days after infestation.

[2] = system: Spodoptera littoralis (Egyptian cotton leaf worm); assay: Example B1: Activity against Spodoptera littoralis, sprayed cotton leaf discs; type: in vivo; settings: foliar, 72 h, application rate 200 ppm, L1 larvae, 3 days after infestation
Experimental: Example B1: Activity against Spodoptera littoralis (Egyptian cotton leaf worm) Cotton leaf discs were placed onto agar in 24-well microtiter plates and sprayed with aqueous test solutions prepared from 10′000 ppm DMSO stock solutions. After drying the leaf discs were infested with five L1 larvae. The samples were assessed for mortality, anti-feeding effect, and growth inhibition in comparison to untreated samples 3 days after infestation. Control of Spodoptera littoralis by a test sample is given when at least one of the categories mortality, anti-feedant effect, and growth inhibition is higher than the untreated sample.

[3] = system: Euschistus heros (Neotropical Brown Stink Bug); assay: Example B8: Activity against Euschistus heros, sprayed soybean leaves; type: in vivo; settings: 120 h, application rate 200 ppm, N2 nymphs, 5 days after infestation, read-out: effect in at least one of the two categories (mortality or growth inhibition)
Experimental: Example B8: Activity Against Euschistus heros (Neotropical Brown Stink Bug)
Soybean leaves on agar in 24-well microtiter plates were sprayed with aqueous test solutions prepared from 10′000 ppm DMSO stock solutions. After drying the leaves were infested with N2 nymphs. The samples were assessed for mortality and growth inhibition in comparison to untreated samples 5 days after infestation.

[4] = system: Myzus persicae (Green Peach Aphid); assay: Example B5: Activity against Myzus persicae, sprayed sunflower leaf discs; type: in vivo; settings: foliar, 144 h, application rate 200 ppm, mixed-age aphids, 6 days after infestation
Experimental: Example B5: Activity Against Myzus persicae (Green Peach Aphid)
Sunflower leaf discs were placed onto agar in a 24-well microtiter plate and sprayed with aqueous test solutions prepared from 10′000 ppm DMSO stock solutions. After drying, the leaf discs were infested with an aphid population of mixed ages. The samples were assessed for mortality 6 days after infestation.

[5] = system: Diabrotica Balteata (Corn Root Worm); assay: Example B4: Activity against Diabrotica balteata, sprayed maize sprouts; type: in vivo; settings: 96 h, application rate 200 ppm, L2 larvae, 4 days after infestation, read-out: effect in at least one of the two categories (mortality or growth inhibition)
Experimental: Example B4: Activity Against Diabrotica Balteata (Corn Root Worm)
as §1, with “Maize sprouts, placed onto an agar layer in 24-well” for “24-well”, “plates” for “plates with artificial diet”, “spraying.” for “pipetting.”, “(6” for “(10”, “10” for “15”, “4” for “5”

[6] = system: Spodoptera littoralis (Egyptian cotton leaf worm); assay: Example B2: Activity against Spodoptera littoralis, systemic via lettuce roots in agar; type: in vivo; settings: 144 h, test rate 12.5 ppm, uptake by lettuce roots from agar, 6 days after infestation, read-out: effect in at least one of the three categories (mortality, anti-feeding, or growth inhibition)
Source text: Example B2: Activity against Spodoptera littoralis (Egyptian cotton leaf worm) Test compounds were applied by pipette from 10′000 ppm DMSO stock solutions into 24-well plates and mixed with agar. Lettuce seeds were placed onto the agar and the multi well plate was closed by another plate which contained also agar. After 7 days the compound was absorbed by the roots and the lettuce grew into the lid plate. The lettuce leaves were then cut off into the lid plate. Spodoptera eggs were pipetted through a plastic stencil onto a humid gel blotting paper and the lid plate was closed with it. The samples were assessed for mortality, anti-feedant effect and growth inhibition in comparison to untreated samples 6 days after infestation.

| Compound | percent effect (mortality or growth inhibition) at 200 ppm [1] [%] | percent control (mortality, anti-feedant effect or growth inhibition) at 200 ppm [2] [%] | percent effect (mortality or growth inhibition) at 200 ppm [3] [%] | mortality at 200 ppm [4] [%] | percent effect (mortality or growth inhibition) at 200 ppm [5] [%] | melting point [°C] | percent effect (mortality, anti-feeding or growth inhibition) at 12.5 ppm [6] [%] |
| --- | --- | --- | --- | --- | --- | --- | --- |
| CCS(=O)(=O)c1ccc(-c2cccc(F)c2)nc1-n1nc2cc(C(F)(F)F)ncc2c1Cl [Compound P6] | ≥ 80 | ≥ 80 |  |  |  |  |  |
| CCS(=O)(=O)c1cc(Cl)c(OC)nc1-n1cc2cnc(C(F)(F)F)cc2n1 [Compound P24, 2-(5-chloro-3-ethylsulfonyl-6-methoxy-2-pyridyl)-6-(trifluoromethyl)pyrazolo[4,3-c]pyridine] | ≥ 80 | ≥ 80 | ≥ 80 | ≥ 80 | ≥ 80 |  |  |
| CCS(=O)(=O)c1ccc(-n2cncn2)nc1-n1nc2cc(C(F)(F)F)ncc2c1Cl [Compound P2, 3-chloro-2-[3-ethylsulfonyl-6-(1,2,4-triazol-1-yl)-2-pyridyl]-6-(trifluoromethyl)pyrazolo[4,3-c]pyridine] |  | ≥ 80 | ≥ 80 |  | ≥ 80 |  |  |
| CCS(=O)(=O)c1ccc(-n2cnc(S(C)(=O)=O)n2)nc1-n1cc2cnc(C(F)(F)F)cc2n1 [Compound P28] |  |  |  |  |  | 247 to 249 |  |
| CCS(=O)(=O)c1ccc(-c2cccnc2)nc1-n1nc2cc(C(F)(F)F)ncc2c1Cl [Compound P17, 3-chloro-2-[3-ethylsulfonyl-6-(3-pyridyl)-2-pyridyl]-6-(trifluoromethyl)pyrazolo[4,3-c]pyridine] |  |  |  |  |  | 194 to 196 |  |
| CCS(=O)(=O)c1ccc(-n2cnc(Cl)n2)nc1-n1nc2cc(C(F)(F)F)ncc2c1Cl [Compound P4] |  | ≥ 80 |  |  |  |  |  |
| CCS(=O)(=O)c1ccc(-c2cc(F)cc(F)c2)nc1-n1cc2cnc(C(F)(F)F)cc2n1 [Compound P1, 2-[6-(3,5-difluorophenyl)-3-ethylsulfonyl-2-pyridyl]-6-(trifluoromethyl)pyrazolo[4,3-c]pyridine] |  |  |  |  |  | 207 to 209 |  |
| CCOc1nc(-n2cc3cnc(C(F)(F)F)cc3n2)c(S(=O)(=O)CC)cc1Cl [Compound P23] | ≥ 80 | ≥ 80 | ≥ 80 | ≥ 80 | ≥ 80 |  |  |
| CCS(=O)(=O)c1ccc(-n2cc(C#N)cn2)nc1-n1cc2cnc(C(F)(F)F)cc2n1 [Compound P5] | ≥ 80 | ≥ 80 | ≥ 80 |  | ≥ 80 |  |  |
| CCS(=O)(=O)c1ccc(-n2cnc(SC)n2)nc1-n1nc2cc(C(F)(F)F)ncc2c1Cl [Compound P26] |  |  |  |  |  | 118 to 120 |  |
| CCS(=O)(=O)c1ccc(NC)nc1-n1cc2cnc(C(F)(F)F)cc2n1 [Compound P15] | ≥ 80 | ≥ 80 | ≥ 80 | ≥ 80 | ≥ 80 |  | ≥ 80 |
| CCS(=O)(=O)c1ccc(-n2cncn2)nc1-n1cc2cnc(C(F)(F)F)cc2n1 [Compound P3, 2-[3-ethylsulfonyl-6-(1,2,4-triazol-1-yl)-2-pyridyl]-6-(trifluoromethyl)pyrazolo[4,3-c]pyridine] | ≥ 80 | ≥ 80 | ≥ 80 | ≥ 80 | ≥ 80 |  | ≥ 80 |
| CCS(=O)(=O)c1ccc(-c2cccnc2)nc1-n1cc2cnc(C(F)(F)F)cc2n1 [Compound P12, 2-[3-ethylsulfonyl-6-(3-pyridyl)-2-pyridyl]-6-(trifluoromethyl)pyrazolo[4,3-c]pyridine] | ≥ 80 | ≥ 80 |  |  | ≥ 80 |  |  |
| CCS(=O)(=O)c1ccc(-n2cc(C#N)cn2)nc1-n1nc2cc(C(F)(F)F)ncc2c1Cl [Compound P10, 1-[6-[3-chloro-6-(trifluoromethyl)pyrazolo[4,3-c]pyridin-2-yl]-5-ethylsulfonyl-2-pyridyl]pyrazole-4-carbonitrile] | ≥ 80 | ≥ 80 |  |  |  |  |  |
| CCS(=O)(=O)c1ccc(N)nc1-n1nc2cc(C(F)(F)F)ncc2c1Cl [Compound P14, 6-[3-chloro-6-(trifluoromethyl)pyrazolo[4,3-c]pyridin-2-yl]-5-ethylsulfonyl-pyridin-2-amine] |  |  |  | ≥ 80 |  |  |  |
| CCS(=O)(=O)c1ccc(NO)nc1-n1nc2cc(C(F)(F)F)ncc2c1Cl [Compound P32] |  |  |  |  |  | 246 to 248 |  |
| CCS(=O)(=O)c1ccc(N(C)C)nc1-n1cc2cnc(C(F)(F)F)cc2n1 [Compound P30] |  |  |  |  |  | 256 to 258 |  |
| CCS(=O)(=O)c1ccc(-n2cncn2)nc1-n1nc2cc(C(F)(F)F)ncc2c1C [Compound P22, 2-[3-ethylsulfonyl-6-(1,2,4-triazol-1-yl)-2-pyridyl]-3-methyl-6-(trifluoromethyl)pyrazolo[4,3-c]pyridine] | ≥ 80 | ≥ 80 |  | ≥ 80 | ≥ 80 |  | ≥ 80 |
| CCS(=O)(=O)c1ccc(NC)nc1-n1nc2cc(C(F)(F)F)ncc2c1Cl [Compound P13] |  |  |  |  |  | 257 to 259 |  |
| CCS(=O)(=O)c1ccc(-n2cccn2)nc1-n1cc2cnc(C(F)(F)F)cc2n1 [Compound P8] | ≥ 80 | ≥ 80 |  | ≥ 80 | ≥ 80 |  |  |
| CCS(=O)(=O)c1ccc(-n2cnc(SC)n2)nc1-n1cc2cnc(C(F)(F)F)cc2n1 [Compound P27] |  |  |  |  |  | 172 to 174 |  |
| CCS(=O)(=O)c1ccc(-c2cccc(F)c2)nc1-n1cc2cnc(C(F)(F)F)cc2n1 [Compound P7] |  | ≥ 80 |  |  |  |  |  |
| CCS(=O)(=O)c1ccc(N(C)C)nc1-n1nc2cc(C(F)(F)F)ncc2c1Cl [Compound P29] |  |  |  |  |  | 166 to 168 |  |
| CCS(=O)(=O)c1ccc(-n2ccc(C#N)n2)nc1-n1nc2cc(C(F)(F)F)ncc2c1Cl [Compound P21] |  |  |  |  |  | 264 to 266 |  |
| CCS(=O)(=O)c1cc(Cl)c(NC)nc1-n1cc2cnc(C(F)(F)F)cc2n1 [Compound P18] | ≥ 80 | ≥ 80 | ≥ 80 | ≥ 80 | ≥ 80 |  |  |
| CCS(=O)(=O)c1ccc(-c2cncnc2)nc1-n1cc2cnc(C(F)(F)F)cc2n1 [Compound P9] | ≥ 80 | ≥ 80 | ≥ 80 | ≥ 80 | ≥ 80 |  |  |
| CCS(=O)(=O)c1ccc(-n2ccc(C#N)n2)nc1-n1cc2cnc(C(F)(F)F)cc2n1 [Compound P20] | ≥ 80 | ≥ 80 | ≥ 80 |  | ≥ 80 |  |  |
